Assay results published in paper PMC5552854, “ER/K linked GPCR-G protein fusions systematically modulate second messenger response in cells” (Scientific Reports, 2017).

Assays:
β2-AR-Gs sensor = assay: [3H]-DHA saturation binding (KD); design: species or system human; settings: β2-AR-Gs sensor membranes
Method: (§1) Radio-ligand assays followed the previously published protocol. […]; PerkinElmer) for 90 min at room temperature in Tris-Buffered-Saline (TBS) pH 7.4. Samples were transferred to GF/C membranes pre-treated with 0.3% PEI solution in TBS, washed extensively with cold TBS, and dried over night at room temperature. […] Each experiment was done at least twice with different membrane preparations, with three separate samples prepared per condition, per experiment.

β2-AR control (–) sensor = assay: [3H]-DHA saturation binding (KD); design: species or system human; settings: control sensor membranes
Method: as §1

α2-AR-Gi fusion [1] = settings: 100 μM / 1 mM (Fig. 3 legend), live cells
Method: Change in FRET (ΔFRET) was calculated as FRETligand – FRETbuffer.

α2-AR-Gi fusion [2] = settings: 100 μM, 1 μM forskolin; α2-AR-Gi compared to α2-AR alone (–)

Compound | Kd (β2-AR-Gs sensor) | Kd (β2-AR control (–) sensor) | ΔFRET (α2-AR-Gi fusion [1]) | loss in cAMP signaling (inhibition of forskolin induced cAMP) (α2-AR-Gi fusion [2])
CCCc1ccccc1OCC(O)CNC(C)C (stereo not shown) [[^3H]-DHA, [^3H]-dihydroalprenolol] | ~0.2 nM | ~0.2 nM |  | 
CNC[C@H](O)c1ccc(O)c(O)c1 [epinephrine] |  |  | 0.01 ± 0.002 | greater loss in cAMP signaling
